Reference: patent publication EP3822285A1, “VARIANT NISIN PEPTIDES” (University College Cork-National University of Ireland, Cork, priority 2019, dated 2021)
Converted amounts (≈) assume the structure as drawn. “And” between values parts separate entries of the source, which are not always exact repeats. Equal values may be shown once. Marks after values point to notes of the source that are not given here.

Experiments:
Format in all cases: cell-based
[1] = system: Thermus scotoductus SE-1; assay: Agar diffusion assay with cell free supernatant of producing strains; details: zone diameter relative to Nisin A wild type (100)
Experimental: (§1) Agar diffusion assays were carried out in triplicate using nisin producing and indicator (T. thermophilus HB27 and T. scotoductus Se-1) strains. Both the producer and indicator strains were cultured as per conditions described above. One ml of overnight culture of indicators were added to 50ml of molten Castenholz agar, briefly swirled and poured. Wells were made using sterile glass pipette. To generate cell free supernatant from nisin producing strains, 10 mls of overnight cultures of the strains were centrifuged at 950g for 20 mins. The cell free supernatant was transferred to a sterile tube. 50 µl of cell free supernatant was added to wells described above. Plates were incubated at 55°C for 3 days and the zone of clearance measured.
(§2) The cell free supernatant of nisin A and nisin variant producing L. lactis was used to determine the bioactivity of these lantibiotics against T. thermophilus HB27 and T. scotoductus SE-1 using agar diffusion assays, with the zone of clearance representing the bioactivity of the producing strain (i.e., representing a combination of the amount of the peptide produced and the specific activity of that peptide). […] Among the variants tested were those with altered N-terminal domains. The N-terminal domain of nisin is important for binding with the pyrophosphate moiety of lipid II to mediate pore formation in the cell membrane. Lysine (K) at position 12, which serves as a small flexible region between ring B and C, and is one of among the 5 positively charged residues (K12, K22, K34, H27, […]) of nisin A that contributes to its cationic nature and its attraction to the cell envelope.

[2] = system: Thermus thermophilus HB27; assay: as above; details: zone diameter relative to Nisin A wild type (100)
Experimental: as §1, §2

[3] = system: T. aquaticus; assay: Minimum inhibitory concentration assay (Thermus); details: for MIC: pure peptide, mean of triplicate assays
Experimental: (§3) Minimum inhibitory concentration (MIC) determinations for gram negative Thermus strains were carried out in triplicate in round bottom microtitre plates (Corning). 96 well microtitre plates were pre-treated with bovine serum albumin (BSA) prior to addition of the peptides. Briefly, to each well of the microtire plates 200 µl of d.H2O (filtered with 0.2 µm filter) containing 1% (w/w) BSA was added and incubated at 37°C for 30 mins. The wells were washed with 200 µl of IX phosphate buffered saline (PBS) for 2 times after removing 1% BSA d.H2O. 100 µl of growth media, i.e., Castenholz, was added to each well. […] Target strains were grown overnight as per conditions mention above, 0.5 ml of overnight was subcultured in to 10 mls of fresh Castenholz medium and allowed to grow to an OD600 of ∼0.5. 20µl of this subculture was added to 980µl of media, 150µl of this dilution added to 14.85 ml of growth media. 100µl of this dilution added to each well resulting in a final inoculum of ∼10^5 cfu/ml in 200µl. The plates were incubated at 55° C for 3 days and the MIC was determined as the lowest concentration at which no growth was visible.
(§4) The bioactivity of cell-free supernatant can be influenced by altered diffusion rates, solubility, production or specific activity. To determine to what extent, if any, the bioactivity noted above is due to increased specific activity, nisin A (control) and the derivatives were purified and their molecular weights confirmed by MALDI TOF mass spectrometry (Table: 6) (Figure: 4). These peptides were used to perform minimum inhibitory concentration assays against six Thermus strains, i.e., T. thermophilus HB27, T. scotoductus SE-1, T. rehai, T. oshimai, T. aquaticus and T. brockianus.

[4] = system: T. brockianus; assay: Minimum inhibitory concentration assay (Thermus); details: pure peptide, mean of triplicate assays
Experimental: as §3, §4

[5] = system: T. oshimai; assay: Minimum inhibitory concentration assay (Thermus); details: pure peptide, mean of triplicate assays
Experimental: as §3, §4

[6] = system: T. rehai; assay: Minimum inhibitory concentration assay (Thermus); details: for MIC: pure peptide, mean of triplicate assays
Experimental: as §3, §4

[7] = system: T. scotoductus SE-1; assay: Minimum inhibitory concentration assay (Thermus); details: for MIC: pure peptide, mean of triplicate assays
Experimental: as §3, §4

[8] = system: T. thermophilus HB27; assay: Minimum inhibitory concentration assay (Thermus); details: for MIC: pure peptide, mean of triplicate assays
Experimental: as §3, §4

Row | SMILES | % of wild type [1] | % difference [2] | MIC [3] | MIC [4] [µM] | MIC [5] [µM] | MIC [6] | MIC [7] | MIC [8] | fold better activity than nisin A [7] [fold] | fold better activity than nisin A [6] [fold] | fold better activity than nisin A [8] [fold] | fold better activity than nisin A [3] [fold]
1 | C=C(NC(=O)[C@@H](NC(=O)[C@H](Cc1c[nH]cn1)NC(=O)[C@@H](NC(=O)[C@H](CO)NC(=O)[C@@H]1CS[C@@H](C)[C@H]2NC(=O)[C@H](C)NC(=O)[C@H](NC(=O)[C@H](CCCCN)NC(=O)[C@H](CCSC)NC(=O)[C@H](CC(N)=O)NC(=O)[C@@H]3CS[C@@H](C)[C@@H](NC(=O)[C@H](CCSC)NC(=O)[C@@H]4CS[C@@H](C)[C@@H](NC(=O)[C@@H]5CSC[C@@H](NC(=O)/C(=C/C)NC(=O)[C@@H](N)[C@@H](C)CC)C(=O)N[C@@H]([C@@H](C)CC)C(=O)NC(=C)C(=O)N[C@@H](CC(C)C)C(=O)N5)C(=O)N5CCC[C@H]5C(=O)NCC(=O)N4)C(=O)NCC(=O)N[C@@H](C)C(=O)N[C@@H](CC(C)C)C(=O)N[C@@H](CCSC)C(=O)NCC(=O)N3)[C@H](C)SC[C@H](NC2=O)C(=O)N[C@@H](Cc2c[nH]cn2)C(=O)N1)[C@@H](C)CC)C(C)C)C(=O)N[C@@H](CCCCN)C(=O)O [K12M] | 118% | 118% | 0.0156 µM (≈ 0.0524 µg/mL) | 0.0625 (≈ 0.21 µg/mL) | 0.0156 (≈ 0.0524 µg/mL) | 0.0078 µM (≈ 0.0262 µg/mL) | 0.125 µM (≈ 0.42 µg/mL) | 0.0156 µM (≈ 0.0524 µg/mL) |  |  |  | 
2 | C=C(NC(=O)[C@@H](NC(=O)[C@H](Cc1c[nH]cn1)NC(=O)[C@@H](NC(=O)[C@H](CO)NC(=O)[C@@H]1CS[C@@H](C)[C@H]2NC(=O)[C@H](C)NC(=O)[C@H](NC(=O)[C@H](CCCCN)NC(=O)[C@H](CCSC)NC(=O)[C@H](CC(N)=O)NC(=O)[C@@H]3CS[C@@H](C)[C@@H](NC(=O)[C@H](CO)NC(=O)[C@@H]4CS[C@@H](C)[C@@H](NC(=O)[C@@H]5CSC[C@@H](NC(=O)/C(=C/C)NC(=O)[C@@H](N)[C@@H](C)CC)C(=O)N[C@@H]([C@@H](C)CC)C(=O)NC(=C)C(=O)N[C@@H](CC(C)C)C(=O)N5)C(=O)N5CCC[C@H]5C(=O)NCC(=O)N4)C(=O)NCC(=O)N[C@@H](C)C(=O)N[C@@H](CC(C)C)C(=O)N[C@@H](CCSC)C(=O)NCC(=O)N3)[C@H](C)SC[C@H](NC2=O)C(=O)N[C@@H](Cc2c[nH]cn2)C(=O)N1)[C@@H](C)CC)C(C)C)C(=O)N[C@@H](CCCCN)C(=O)O [K12S] | 123% | 125% | 0.0312 µM (≈ 0.103 µg/mL) | 0.0312 (≈ 0.103 µg/mL) | 0.0156 (≈ 0.0517 µg/mL) | 0.0156 µM (≈ 0.0517 µg/mL) | 0.0312 µM (≈ 0.103 µg/mL) | 0.0312 µM (≈ 0.103 µg/mL) | 2 |  |  | 
3 | C=C(NC(=O)[C@@H](NC(=O)[C@H](Cc1c[nH]cn1)NC(=O)[C@@H](NC(=O)[C@H](CO)NC(=O)[C@@H]1CS[C@@H](C)[C@H]2NC(=O)[C@H](C)NC(=O)[C@H](NC(=O)[C@H](CCCCN)NC(=O)[C@H](CCSC)NC(=O)[C@H](CC(N)=O)NC(=O)[C@@H]3CS[C@@H](C)[C@@H](NC(=O)[C@@H](NC(=O)[C@@H]4CS[C@@H](C)[C@@H](NC(=O)[C@@H]5CSC[C@@H](NC(=O)/C(=C/C)NC(=O)[C@@H](N)[C@@H](C)CC)C(=O)N[C@@H]([C@@H](C)CC)C(=O)NC(=C)C(=O)N[C@@H](CC(C)C)C(=O)N5)C(=O)N5CCC[C@H]5C(=O)NCC(=O)N4)[C@@H](C)O)C(=O)NCC(=O)N[C@@H](C)C(=O)N[C@@H](CC(C)C)C(=O)N[C@@H](CCSC)C(=O)NCC(=O)N3)[C@H](C)SC[C@H](NC2=O)C(=O)N[C@@H](Cc2c[nH]cn2)C(=O)N1)[C@@H](C)CC)C(C)C)C(=O)N[C@@H](CCCCN)C(=O)O [K12T] | 140* (0.001) % | 148* (.001) % | 0.0312 µM (≈ 0.104 µg/mL) | 0.0625 (≈ 0.208 µg/mL) | 0.0312 (≈ 0.104 µg/mL) | 0.0156 µM (≈ 0.0519 µg/mL) | 0.0625 µM (≈ 0.208 µg/mL) | 0.0156 µM (≈ 0.0519 µg/mL) |  |  |  | 
4 | C=C(NC(=O)[C@@H](NC(=O)[C@H](Cc1c[nH]cn1)NC(=O)[C@@H](NC(=O)[C@H](CO)NC(=O)[C@@H]1CS[C@@H](C)[C@H]2NC(=O)[C@H](C)NC(=O)[C@H](NC(=O)[C@H](CCCCN)NC(=O)[C@H](CCSC)NC(=O)[C@H](CC(N)=O)NC(=O)[C@@H]3CS[C@@H](C)[C@@H](NC(=O)[C@@H](NC(=O)[C@@H]4CS[C@@H](C)[C@@H](NC(=O)[C@@H]5CSC[C@@H](NC(=O)/C(=C/C)NC(=O)[C@@H](N)[C@@H](C)CC)C(=O)N[C@@H]([C@@H](C)CC)C(=O)NC(=C)C(=O)N[C@@H](CC(C)C)C(=O)N5)C(=O)N5CCC[C@H]5C(=O)NCC(=O)N4)C(C)C)C(=O)NCC(=O)N[C@@H](C)C(=O)N[C@@H](CC(C)C)C(=O)N[C@@H](CCSC)C(=O)NCC(=O)N3)[C@H](C)SC[C@H](NC2=O)C(=O)N[C@@H](Cc2c[nH]cn2)C(=O)N1)[C@@H](C)CC)C(C)C)C(=O)N[C@@H](CCCCN)C(=O)O [K12V] | 125* (0.04) % | 145* (0.004) % | 0.0156 µM (≈ 0.0519 µg/mL) | 0.0156 (≈ 0.0519 µg/mL) | 0.0156 (≈ 0.0519 µg/mL) | 0.0039 µM (≈ 0.013 µg/mL) | 103.9 µg/L and 0.0312 µM | 12.9 µg/L and 0.0039 µM | 2 | 2 | 2 | 
5 | C=C(NC(=O)[C@@H](NC(=O)[C@H](Cc1c[nH]cn1)NC(=O)[C@@H](NC(=O)[C@H](CO)NC(=O)[C@@H]1CS[C@@H](C)[C@H]2NC(=O)[C@H](C)NC(=O)[C@H](NC(=O)[C@H](CCCCN)NC(=O)[C@H](CCSC)NC(=O)[C@H](CC(N)=O)NC(=O)[C@@H]3CS[C@@H](C)[C@@H](NC(=O)[C@H](Cc4ccc(O)cc4)NC(=O)[C@@H]4CS[C@@H](C)[C@@H](NC(=O)[C@@H]5CSC[C@@H](NC(=O)/C(=C/C)NC(=O)[C@@H](N)[C@@H](C)CC)C(=O)N[C@@H]([C@@H](C)CC)C(=O)NC(=C)C(=O)N[C@@H](CC(C)C)C(=O)N5)C(=O)N5CCC[C@H]5C(=O)NCC(=O)N4)C(=O)NCC(=O)N[C@@H](C)C(=O)N[C@@H](CC(C)C)C(=O)N[C@@H](CCSC)C(=O)NCC(=O)N3)[C@H](C)SC[C@H](NC2=O)C(=O)N[C@@H](Cc2c[nH]cn2)C(=O)N1)[C@@H](C)CC)C(C)C)C(=O)N[C@@H](CCCCN)C(=O)O [K12Y] | 74% | 94% | 26.4 µg/L and 0.0078 µM | 0.0312 (≈ 0.106 µg/mL) | 0.0156 (≈ 0.0529 µg/mL) | 6.6 µg/L and 0.00195 µM | 0.625 µM (≈ 2.12 µg/mL) | 0.0156 µM (≈ 0.0529 µg/mL) |  | 4 |  | 2
6 | C=C(NC(=O)[C@@H](NC(=O)[C@H](Cc1c[nH]cn1)NC(=O)[C@@H](NC(=O)[C@H](CO)NC(=O)[C@@H]1CS[C@@H](C)[C@H]2NC(=O)[C@H](C)NC(=O)[C@H](NC(=O)[C@H](CCCCN)NC(=O)[C@H](Cc3ccccc3)NC(=O)[C@H](CC(N)=O)NC(=O)[C@@H]3CS[C@@H](C)[C@@H](NC(=O)[C@H](CCCCN)NC(=O)[C@@H]4CS[C@@H](C)[C@@H](NC(=O)[C@@H]5CSC[C@@H](NC(=O)/C(=C/C)NC(=O)[C@@H](N)[C@@H](C)CC)C(=O)N[C@@H]([C@@H](C)CC)C(=O)NC(=C)C(=O)N[C@@H](CC(C)C)C(=O)N5)C(=O)N5CCC[C@H]5C(=O)NCC(=O)N4)C(=O)NCC(=O)N[C@@H](C)C(=O)N[C@@H](CC(C)C)C(=O)N[C@@H](CCSC)C(=O)NCC(=O)N3)[C@H](C)SC[C@H](NC2=O)C(=O)N[C@@H](Cc2c[nH]cn2)C(=O)N1)[C@@H](C)CC)C(C)C)C(=O)N[C@@H](CCCCN)C(=O)O [M21F] | 106% | 125% | 0.0039 µM (≈ 0.0131 µg/mL) | 0.0078 (≈ 0.0263 µg/mL) | 0.00195 (≈ 0.00657 µg/mL) | 0.000975 µM (≈ 0.00329 µg/mL) | 0.0312 µM (≈ 0.105 µg/mL) | 0.0039 µM (≈ 0.0131 µg/mL) |  |  |  | 
